Source: US12240844B2 (Voronoi, Inc., priority 2019, dated 2025)

Columns and labels:
Test in all cases: scanMAX Kinase panel (DiscoverX), % control
Type in all cases: binding
Details in all cases: <35% = active
[1] = target: T1, ALK (C1156Y) (Homo sapiens, UniProt Q9UM73, C1156Y)
T1 construct: purchased DiscoverX
In short: (§1)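 Single-point scanMAX profiling, 1 uM compound (DMSO). % control scaled between DMSO = 100% and positive control = 0%. Cut-off for activity: <35%.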

[2] = target: T2, CLK2 (Homo sapiens, UniProt P49760)
T2 construct: purchased DiscoverX
T2 sequence (P49760 whole entry): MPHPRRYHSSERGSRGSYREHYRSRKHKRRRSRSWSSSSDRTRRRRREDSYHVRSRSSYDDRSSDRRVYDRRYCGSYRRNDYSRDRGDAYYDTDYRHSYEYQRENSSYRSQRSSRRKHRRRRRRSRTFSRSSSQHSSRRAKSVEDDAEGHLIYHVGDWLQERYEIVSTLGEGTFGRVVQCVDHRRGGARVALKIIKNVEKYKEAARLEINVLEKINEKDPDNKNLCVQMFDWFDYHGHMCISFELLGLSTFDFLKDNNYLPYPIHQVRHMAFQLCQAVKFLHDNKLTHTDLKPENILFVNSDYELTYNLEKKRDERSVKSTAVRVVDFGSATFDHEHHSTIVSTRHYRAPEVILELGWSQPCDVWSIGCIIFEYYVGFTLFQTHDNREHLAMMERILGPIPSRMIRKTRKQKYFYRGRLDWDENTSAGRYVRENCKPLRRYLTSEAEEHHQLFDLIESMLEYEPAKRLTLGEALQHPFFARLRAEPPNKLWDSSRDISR
In short: as §1

[3] = target: T3, DYRK1A (Homo sapiens, UniProt Q13627)
T3 construct: purchased DiscoverX
In short: as §1

[4] = target: T4, DYRK2 (Homo sapiens, UniProt Q92630)
T4 construct: purchased DiscoverX
T4 sequence (Q92630 1-601): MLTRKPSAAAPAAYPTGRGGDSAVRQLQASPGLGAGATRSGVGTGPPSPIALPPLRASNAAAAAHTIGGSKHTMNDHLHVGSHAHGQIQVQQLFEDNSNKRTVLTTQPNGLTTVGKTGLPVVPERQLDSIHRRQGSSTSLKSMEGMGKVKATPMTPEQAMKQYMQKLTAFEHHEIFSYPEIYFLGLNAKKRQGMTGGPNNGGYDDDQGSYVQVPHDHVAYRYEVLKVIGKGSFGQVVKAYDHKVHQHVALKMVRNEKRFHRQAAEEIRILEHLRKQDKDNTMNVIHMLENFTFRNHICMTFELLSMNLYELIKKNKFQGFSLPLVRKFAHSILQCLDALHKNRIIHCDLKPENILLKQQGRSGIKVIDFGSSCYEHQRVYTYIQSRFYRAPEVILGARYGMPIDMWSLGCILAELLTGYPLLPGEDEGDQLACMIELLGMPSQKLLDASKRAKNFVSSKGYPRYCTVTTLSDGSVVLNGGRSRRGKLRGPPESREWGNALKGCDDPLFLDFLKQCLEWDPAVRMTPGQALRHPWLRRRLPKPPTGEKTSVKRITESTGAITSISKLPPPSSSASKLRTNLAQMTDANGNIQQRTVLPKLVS
In short: as §1

[5] = target: T5, GAK (Homo sapiens, UniProt O14976)
T5 construct: purchased DiscoverX
T5 sequence (O14976 1-1311): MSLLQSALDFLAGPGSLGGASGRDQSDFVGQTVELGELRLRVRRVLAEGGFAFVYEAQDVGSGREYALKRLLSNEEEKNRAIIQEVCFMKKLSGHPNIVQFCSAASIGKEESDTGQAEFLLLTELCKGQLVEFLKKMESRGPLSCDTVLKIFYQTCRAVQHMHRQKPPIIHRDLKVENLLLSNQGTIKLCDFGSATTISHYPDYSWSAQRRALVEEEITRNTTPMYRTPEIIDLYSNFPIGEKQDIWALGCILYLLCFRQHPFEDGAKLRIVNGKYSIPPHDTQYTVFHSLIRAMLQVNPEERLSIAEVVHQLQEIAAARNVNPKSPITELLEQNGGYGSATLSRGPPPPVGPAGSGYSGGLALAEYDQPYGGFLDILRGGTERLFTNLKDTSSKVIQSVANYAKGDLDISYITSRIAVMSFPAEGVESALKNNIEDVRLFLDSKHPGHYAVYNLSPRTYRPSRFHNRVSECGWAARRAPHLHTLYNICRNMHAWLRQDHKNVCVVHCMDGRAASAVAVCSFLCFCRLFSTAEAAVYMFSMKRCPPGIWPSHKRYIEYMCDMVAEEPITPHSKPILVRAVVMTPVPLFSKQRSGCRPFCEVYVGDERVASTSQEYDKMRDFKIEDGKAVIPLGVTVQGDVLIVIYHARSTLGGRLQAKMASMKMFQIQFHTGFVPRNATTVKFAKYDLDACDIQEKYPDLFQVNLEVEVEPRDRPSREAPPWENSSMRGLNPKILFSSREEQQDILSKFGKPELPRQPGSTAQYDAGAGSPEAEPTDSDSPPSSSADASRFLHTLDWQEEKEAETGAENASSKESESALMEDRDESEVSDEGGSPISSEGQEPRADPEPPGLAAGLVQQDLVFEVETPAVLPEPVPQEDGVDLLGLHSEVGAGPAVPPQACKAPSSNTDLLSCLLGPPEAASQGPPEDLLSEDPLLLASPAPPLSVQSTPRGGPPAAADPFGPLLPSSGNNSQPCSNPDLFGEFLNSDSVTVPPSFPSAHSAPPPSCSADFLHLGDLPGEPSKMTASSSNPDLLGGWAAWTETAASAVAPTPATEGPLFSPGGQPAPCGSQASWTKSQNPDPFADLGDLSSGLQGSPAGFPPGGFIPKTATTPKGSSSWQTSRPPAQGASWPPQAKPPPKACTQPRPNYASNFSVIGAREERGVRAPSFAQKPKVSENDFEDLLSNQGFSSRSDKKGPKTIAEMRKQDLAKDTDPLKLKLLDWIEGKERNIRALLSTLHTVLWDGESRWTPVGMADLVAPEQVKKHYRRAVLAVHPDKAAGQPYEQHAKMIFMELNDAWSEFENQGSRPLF
In short: as §1

[6] = target: T6, MYLK (Homo sapiens, UniProt Q15746)
T6 construct: purchased DiscoverX
T6 sequence (Q15746 whole entry): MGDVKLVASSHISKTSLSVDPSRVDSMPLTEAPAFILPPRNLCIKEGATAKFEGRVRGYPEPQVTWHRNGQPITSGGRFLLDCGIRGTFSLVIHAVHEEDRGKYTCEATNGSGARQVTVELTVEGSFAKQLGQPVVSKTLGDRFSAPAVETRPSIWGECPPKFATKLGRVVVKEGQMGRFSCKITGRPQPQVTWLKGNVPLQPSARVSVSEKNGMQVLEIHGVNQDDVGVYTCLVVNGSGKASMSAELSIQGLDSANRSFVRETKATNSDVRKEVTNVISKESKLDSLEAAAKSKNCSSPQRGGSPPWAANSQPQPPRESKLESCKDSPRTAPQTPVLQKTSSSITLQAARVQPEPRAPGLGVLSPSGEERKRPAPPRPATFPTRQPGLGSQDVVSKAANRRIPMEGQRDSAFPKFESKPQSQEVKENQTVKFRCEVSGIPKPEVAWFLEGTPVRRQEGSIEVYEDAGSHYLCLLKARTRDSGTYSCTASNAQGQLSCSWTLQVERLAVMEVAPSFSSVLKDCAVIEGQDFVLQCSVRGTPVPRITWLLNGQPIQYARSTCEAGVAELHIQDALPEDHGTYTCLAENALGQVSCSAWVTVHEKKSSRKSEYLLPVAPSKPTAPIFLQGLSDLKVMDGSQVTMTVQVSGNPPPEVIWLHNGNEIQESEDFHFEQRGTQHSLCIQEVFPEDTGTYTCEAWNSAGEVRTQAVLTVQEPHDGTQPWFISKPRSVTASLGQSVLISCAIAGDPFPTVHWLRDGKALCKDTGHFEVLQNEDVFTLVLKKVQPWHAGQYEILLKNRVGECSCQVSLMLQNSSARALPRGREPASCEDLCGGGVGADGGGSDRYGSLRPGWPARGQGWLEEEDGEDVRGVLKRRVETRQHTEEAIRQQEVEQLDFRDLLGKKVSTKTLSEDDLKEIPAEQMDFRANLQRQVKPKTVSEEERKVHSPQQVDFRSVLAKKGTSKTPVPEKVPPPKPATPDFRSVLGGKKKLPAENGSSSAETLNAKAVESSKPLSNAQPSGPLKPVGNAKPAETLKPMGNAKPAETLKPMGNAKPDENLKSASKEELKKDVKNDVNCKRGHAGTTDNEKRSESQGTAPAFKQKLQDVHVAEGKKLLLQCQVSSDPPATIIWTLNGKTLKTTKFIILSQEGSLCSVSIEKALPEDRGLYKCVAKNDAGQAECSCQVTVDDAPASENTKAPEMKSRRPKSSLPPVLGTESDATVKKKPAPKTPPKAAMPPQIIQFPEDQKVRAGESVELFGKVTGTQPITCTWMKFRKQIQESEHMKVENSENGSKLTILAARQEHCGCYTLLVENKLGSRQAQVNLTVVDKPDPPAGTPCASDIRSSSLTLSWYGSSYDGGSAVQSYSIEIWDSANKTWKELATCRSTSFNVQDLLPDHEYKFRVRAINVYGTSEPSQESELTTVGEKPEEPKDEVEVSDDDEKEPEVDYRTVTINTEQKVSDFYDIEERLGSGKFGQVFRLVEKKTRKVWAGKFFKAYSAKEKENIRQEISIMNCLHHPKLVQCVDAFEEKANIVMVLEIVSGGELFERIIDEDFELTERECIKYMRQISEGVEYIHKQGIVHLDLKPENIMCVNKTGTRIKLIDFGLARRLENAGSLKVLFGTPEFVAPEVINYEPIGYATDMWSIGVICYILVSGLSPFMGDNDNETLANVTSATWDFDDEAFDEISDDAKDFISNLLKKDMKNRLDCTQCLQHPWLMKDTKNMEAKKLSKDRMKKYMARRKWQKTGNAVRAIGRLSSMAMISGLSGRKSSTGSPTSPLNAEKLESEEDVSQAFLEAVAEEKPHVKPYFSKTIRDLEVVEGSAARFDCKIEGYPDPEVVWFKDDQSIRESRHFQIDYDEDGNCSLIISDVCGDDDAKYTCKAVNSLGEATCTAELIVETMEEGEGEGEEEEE
In short: as §1

T1 sequence (Q9UM73 19-1620 C1156Y): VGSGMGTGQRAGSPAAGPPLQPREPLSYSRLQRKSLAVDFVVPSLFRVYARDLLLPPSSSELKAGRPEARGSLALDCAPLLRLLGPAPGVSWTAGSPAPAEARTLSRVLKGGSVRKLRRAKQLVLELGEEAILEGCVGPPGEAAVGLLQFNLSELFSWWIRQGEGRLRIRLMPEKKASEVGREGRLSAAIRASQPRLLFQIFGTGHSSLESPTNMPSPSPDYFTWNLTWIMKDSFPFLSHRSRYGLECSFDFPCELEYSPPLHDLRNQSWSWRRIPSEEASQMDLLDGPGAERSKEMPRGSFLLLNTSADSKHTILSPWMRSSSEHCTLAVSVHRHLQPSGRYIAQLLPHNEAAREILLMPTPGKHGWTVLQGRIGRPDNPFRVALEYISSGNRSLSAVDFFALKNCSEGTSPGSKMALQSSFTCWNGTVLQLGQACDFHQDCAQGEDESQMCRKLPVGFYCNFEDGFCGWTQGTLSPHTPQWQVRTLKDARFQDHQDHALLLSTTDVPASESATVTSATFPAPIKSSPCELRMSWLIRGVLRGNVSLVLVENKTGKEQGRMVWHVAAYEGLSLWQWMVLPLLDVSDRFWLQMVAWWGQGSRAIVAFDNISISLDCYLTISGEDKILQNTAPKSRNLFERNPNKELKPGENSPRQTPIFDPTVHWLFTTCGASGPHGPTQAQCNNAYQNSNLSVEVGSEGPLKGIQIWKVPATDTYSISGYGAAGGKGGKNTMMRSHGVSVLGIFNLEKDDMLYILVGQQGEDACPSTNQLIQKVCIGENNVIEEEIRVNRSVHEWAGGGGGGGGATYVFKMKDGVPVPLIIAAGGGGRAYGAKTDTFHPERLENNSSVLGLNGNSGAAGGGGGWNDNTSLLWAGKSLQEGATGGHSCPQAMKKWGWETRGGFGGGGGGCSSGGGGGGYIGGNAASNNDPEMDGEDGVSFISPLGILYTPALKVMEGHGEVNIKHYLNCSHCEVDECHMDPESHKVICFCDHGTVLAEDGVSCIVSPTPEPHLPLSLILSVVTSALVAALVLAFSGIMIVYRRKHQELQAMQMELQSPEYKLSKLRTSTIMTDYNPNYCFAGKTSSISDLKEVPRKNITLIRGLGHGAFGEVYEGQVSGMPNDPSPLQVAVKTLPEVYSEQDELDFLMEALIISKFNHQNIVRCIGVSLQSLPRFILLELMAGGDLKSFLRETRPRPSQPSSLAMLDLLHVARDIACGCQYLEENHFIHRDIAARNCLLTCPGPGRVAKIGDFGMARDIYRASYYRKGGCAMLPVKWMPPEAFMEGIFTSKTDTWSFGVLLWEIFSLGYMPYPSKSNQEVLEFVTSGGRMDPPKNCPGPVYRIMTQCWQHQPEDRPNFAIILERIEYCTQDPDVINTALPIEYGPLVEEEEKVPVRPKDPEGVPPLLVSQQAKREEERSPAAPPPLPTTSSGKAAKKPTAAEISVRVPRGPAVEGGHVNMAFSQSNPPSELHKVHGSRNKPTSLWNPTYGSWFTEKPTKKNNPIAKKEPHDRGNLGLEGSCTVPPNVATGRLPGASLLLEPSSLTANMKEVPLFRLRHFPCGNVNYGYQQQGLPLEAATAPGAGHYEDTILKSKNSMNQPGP

O=C(c1ccc(Nc2cc(C3CC3)c3c(C(F)(F)F)c[nH]c3n2)c2c1CCO2)N1CC[C@@H](N2CCOCC2)C1 [Example 238, (R)-(7-((4-cyclopropyl-3-(trifluoromethyl)-1H-pyrrolo[2,3-b]pyridin-6-yl)amino)-2,3-dihydrobenzofuran-4-yl)(3-morpholinopyrrolidin-1-yl)methanone]
remaining binding at 1 µM [1]: 42%
remaining binding at 1 µM [2]: 0.25%
remaining binding at 1 µM [3]: 1.9%
remaining binding at 1 µM [4]: 89%
remaining binding at 1 µM [5]: 27%
remaining binding at 1 µM [6]: 33%
